Bridge positions count the residues as written; N and C are the ends. Square brackets hold non-standard residues; d marks the D form. Peptide text beside a SMILES is read from it. 2Nal = N[C@@H](Cc1ccc2ccccc2c1)C(=O)O; Met(O2) = CS(=O)(=O)CC[C@H](N)C(=O)O; 2Pal = N[C@@H](Cc1ccccn1)C(=O)O; Tic = O=C(O)[C@@H]1Cc2ccccc2CN1; Chg = N[C@H](C(=O)O)C1CCCCC1
system: not listed separately; assay: Stability in mouse serum; assay type: in vitro ADME; conditions: not given

| SMILES | stability in mouse serum |
| --- | --- |
| CC[C@H](C)[C@@H]1NC(=O)[C@@H](N)CSSC[C@@H](C(=O)O)NC(=O)[C@H](CC(C)C)NC(=O)[C@H](Cc2c[nH]cn2)NC(=O)[C@H](CCS(C)(=O)=O)NC1=O [Sequence Number 17, C*IMet(O2)HLC*] (H-CI[Met(O2)]HLC-OH; disulfide 1-6; N-terminus and C-terminus assumed) | stable for 24 hours |

biological target: VLA-4-IgG chimeric protein (Homo sapiens, UniProt P05556+P13612); assay: Inhibition of binding of CS-1 peptide and VLA-4-IgG chimeric protein; conditions: binding of immobilized CS-1 peptide and VLA-4-IgG chimeric protein, absorbance at 490 nm
Excerpt: As the method for investigating the adhesion inhibiting activity in terms of VLA-4, there can be used an adhesion measuring system for cells such as Ramos cells and Jurkat cells, and fibronectin or a fibronectin fragment, for example a peptide consisting of the CS-1 sequence (Gly Pro Glu Ile Leu Asp Val Pro Ser Thr SEQ ID NO:59) [hereinafter referred to as the CS-1 peptide], immobilized on an immunoplate. Furthermore, as another method, there can be used a binding measurement system for VLA-4 protein and fibronectin or a fibronectin fragment, for example the CS-1 peptide, immobilized on an immunoplate or the like. In the present invention, it is preferred that the inhibiting activity of a compound be evaluated in a binding measurement system for a VLA-4 and immunoglobulin chimeric protein (VLA-4-IgG chimeric protein) and a peptide containing the CS-1 sequence (WO98/032771), but there is no restriction thereto. Reference here to VLA-4-IgG chimeric protein means a heterodimer complex molecule formed when a VLA-4 α4 and immunoglobulin chimeric protein (referred to hereinafter as the VLAα4.IgG chimeric protein) and a VLA-4 β1 and immunoglobulin chimeric protein (referred to hereinafter as the VLAβ1.IgG chimeric protein) undergo association. Moreover, for the immunoglobulin, there can be used heavy or light chains of IgG, IgM or the like, and in the present invention IgG1 heavy chains were used. When observing the cyclic peptide inhibition effect, it is best to use a previously prepared mixture of the α4.IgG heavy chain-β1.IgG heavy chain chimeric protein heterodimer complex and the test material.
Cyclic peptide inhibiting effect in terms of the binding of CS-1 peptide and VLA-4-IgG chimeric protein.
A conjugate of the peptide containing the CS-1 sequence shown in SEQ ID NO:57 and rabbit IgG (Sigma) was prepared in accordance with the literature (Humphries, M. J. et al, J. Biol. Chem., 262, 6886-6892 (1987)). This was diluted with PBS(−), and 100 μl/well quantities introduced into a 96 well immunoplate (NUNC), after which this was left to stand for 16 hours at 4° C. and the CS-1 peptide immobilized.
Gys Lue His Gly Pro Glu Ile Leu Asp Val Pro Ser Thr (SEQ ID NO:57)
Next, after washing the interior of the wells twice with PBS(−), 300 μl/well quantities of 1% BSA-PBS solution which had been heat treated for 10 minutes at 80° C. were introduced, then left for 3 hours at 4° C., after which the solution inside the wells was removed by suction.
Each cyclic peptide and VLA-4-IgG chimeric protein (100 μl) were reacted together beforehand for 20 minutes at room temperature, and then reaction carried out for 3 hours at 30° C. with the CS-1 peptide. Subsequently, the non-bonded VLA-4-IgG chimeric protein was removed by suction, and washed away twice with TBS buffer (150 mM NaCl, 25 mM Tris-HCl, 1 mM MnCl2 pH 7.4) containing 0.1% BSA. To the bonded VLA-4-IgG chimeric protein, biotin labelled anti-human IgG antibody (Vector) as the first antibody was added, and then avidin labelled horseradish peroxidase (Sigma) was added as the second antibody and reaction carried out. Following the reaction, o-phenylenediamine was added as a substrate and colour development effected, and then the absorbance measured at 490 nm. From this absorbance, the binding inhibition activity due to the respective peptides was determined.

Chain of VLA-4-IgG chimeric protein (P13612 34-1032, change not shown): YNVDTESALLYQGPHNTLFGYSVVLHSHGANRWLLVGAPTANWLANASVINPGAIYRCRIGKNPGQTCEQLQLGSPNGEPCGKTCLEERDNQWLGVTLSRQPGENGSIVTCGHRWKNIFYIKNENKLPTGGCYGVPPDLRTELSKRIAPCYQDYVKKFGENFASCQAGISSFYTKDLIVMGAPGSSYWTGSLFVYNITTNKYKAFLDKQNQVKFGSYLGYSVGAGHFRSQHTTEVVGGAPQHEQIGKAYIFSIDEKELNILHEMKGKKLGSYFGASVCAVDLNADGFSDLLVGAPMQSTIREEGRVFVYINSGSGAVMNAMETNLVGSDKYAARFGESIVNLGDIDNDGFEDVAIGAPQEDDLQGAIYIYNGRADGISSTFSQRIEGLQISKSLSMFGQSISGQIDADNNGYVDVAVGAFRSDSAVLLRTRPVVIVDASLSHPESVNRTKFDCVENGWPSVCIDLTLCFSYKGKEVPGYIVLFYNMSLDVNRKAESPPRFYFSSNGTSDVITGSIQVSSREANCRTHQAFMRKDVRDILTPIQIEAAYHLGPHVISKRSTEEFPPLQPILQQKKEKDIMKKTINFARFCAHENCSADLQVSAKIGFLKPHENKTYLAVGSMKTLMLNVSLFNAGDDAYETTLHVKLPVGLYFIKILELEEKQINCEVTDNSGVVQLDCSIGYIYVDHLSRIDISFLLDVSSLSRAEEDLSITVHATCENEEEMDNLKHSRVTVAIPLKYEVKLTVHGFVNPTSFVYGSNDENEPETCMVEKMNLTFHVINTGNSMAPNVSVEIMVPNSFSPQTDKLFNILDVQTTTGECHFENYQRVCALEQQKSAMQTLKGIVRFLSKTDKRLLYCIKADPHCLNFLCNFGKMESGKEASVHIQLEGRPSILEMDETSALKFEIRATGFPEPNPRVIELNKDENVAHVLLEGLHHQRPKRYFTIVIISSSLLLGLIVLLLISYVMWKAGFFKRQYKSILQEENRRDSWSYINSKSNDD
Chain of VLA-4-IgG chimeric protein (P05556 21-798, change not shown): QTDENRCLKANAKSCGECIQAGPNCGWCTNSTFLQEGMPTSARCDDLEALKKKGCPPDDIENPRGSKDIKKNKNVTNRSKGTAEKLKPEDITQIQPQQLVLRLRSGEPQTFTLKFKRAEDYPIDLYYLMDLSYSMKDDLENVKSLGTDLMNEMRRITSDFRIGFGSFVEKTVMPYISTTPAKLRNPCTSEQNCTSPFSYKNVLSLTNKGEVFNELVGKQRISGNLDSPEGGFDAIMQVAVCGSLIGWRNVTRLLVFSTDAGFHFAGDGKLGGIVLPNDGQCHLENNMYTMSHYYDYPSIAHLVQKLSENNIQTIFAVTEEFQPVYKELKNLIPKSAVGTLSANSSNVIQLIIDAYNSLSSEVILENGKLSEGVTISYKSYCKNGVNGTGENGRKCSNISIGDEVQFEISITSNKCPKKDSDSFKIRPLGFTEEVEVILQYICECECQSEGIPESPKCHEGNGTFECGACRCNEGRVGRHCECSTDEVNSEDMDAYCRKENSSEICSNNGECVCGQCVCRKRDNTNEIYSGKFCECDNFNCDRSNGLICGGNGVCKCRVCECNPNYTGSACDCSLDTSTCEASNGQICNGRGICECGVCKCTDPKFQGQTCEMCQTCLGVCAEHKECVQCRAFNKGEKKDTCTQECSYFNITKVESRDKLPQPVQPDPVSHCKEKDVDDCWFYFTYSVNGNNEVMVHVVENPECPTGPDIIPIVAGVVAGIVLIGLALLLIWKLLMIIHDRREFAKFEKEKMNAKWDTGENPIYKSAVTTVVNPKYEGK

| SMILES | IC50 |
| --- | --- |
| CC[C@H](C)[C@@H]1NC(=O)[C@@H](N)CSSC[C@@H](C(=O)O)NC(=O)[C@H](CC(C)C)NC(=O)[C@H](Cc2c[nH]cn2)NC(=O)[C@H](CC(=O)O)NC1=O [compound 4] (H-CIDHLC-OH; disulfide 1-6) | 1200 nM |
| CC[C@H](C)[C@@H]1NC(=O)[C@@H](N)CSSC[C@@H](C(=O)O)NC(=O)[C@H](CC(C)C)NC(=O)[C@H](Cc2c[nH]cn2)NC(=O)[C@H](CCC(=O)O)NC1=O [compound 9] (H-CIEHLC-OH; disulfide 1-6) | 1600 nM |
| CC[C@H](C)[C@@H]1NC(=O)[C@@H](N)CSSC[C@@H](C(=O)O)NC(=O)[C@H](CC(C)C)NC(=O)[C@H](Cc2c[nH]cn2)NC(=O)[C@H](CCS(C)(=O)=O)NC1=O [compound 17] (H-CI[Met(O2)]HLC-OH; disulfide 1-6) | 800 nM |
| CC(C)C[C@@H]1NC(=O)[C@H](Cc2c[nH]cn2)NC(=O)[C@H](CC(=O)O)NC(=O)[C@H](C2CCCCC2)NC(=O)[C@@H](N)CSSC[C@@H](C(=O)O)NC1=O [compound 22] (H-C[Chg]DHLC-OH; disulfide 1-6) | 120 nM |
| CC(C)C[C@@H]1NC(=O)[C@H](Cc2c[nH]cn2)NC(=O)[C@H](CC(=O)O)NC(=O)[C@@H]2Cc3ccccc3CN2C(=O)[C@@H](N)CSSC[C@@H](C(=O)O)NC1=O [compound 25] (H-C[Tic]DHLC-OH; disulfide 1-6) | 650 nM |
| CC[C@H](C)[C@@H]1NC(=O)[C@@H](N)CSSC[C@@H](C(=O)O)NC(=O)[C@H](CC(C)C)NC(=O)[C@H](Cc2ccccn2)NC(=O)[C@H](CC(=O)O)NC1=O [compound 29] (H-CID[2Pal]LC-OH; disulfide 1-6) | 500 nM |
| CC[C@H](C)[C@@H]1NC(=O)[C@@H](N)CSSC[C@@H](C(=O)O)NC(=O)[C@H](CC(C)C)NC(=O)[C@H](Cc2c[nH]c3ccccc23)NC(=O)[C@H](CC(=O)O)NC1=O [compound 31] (H-CIDWLC-OH; disulfide 1-6) | 450 nM |
| CC[C@H](C)[C@@H]1NC(=O)[C@@H](N)CSSC[C@@H](C(=O)O)NC(=O)[C@H](CC(C)C)NC(=O)[C@H](Cc2ccc3ccccc3c2)NC(=O)[C@H](CC(=O)O)NC1=O [compound 34] (H-CID[2Nal]LC-OH; disulfide 1-6; N-terminus and C-terminus assumed) | 600 nM |
| CC[C@H](C)[C@@H]1NC(=O)[C@H](Cc2ccccc2)NC(=O)[C@H](CC(=O)O)NC(=O)[C@H]([C@@H](C)CC)NC(=O)[C@@H](N)CSSC[C@@H](C(=O)O)NC1=O [compound 48] (H-CIDFIC-OH; disulfide 1-6) | 250 nM |

— US6511961B1, “Cyclic peptides and medicinal use thereof” (Toray Industries, Inc., priority 1997, dated 2003)
